Source: article PMC3131558, “Plitidepsin Has a Safe Cardiac Profile: A Comprehensive Analysis” (Marine Drugs, 2011)

Legend:
Assay type in all cases: in vivo, human
[1] = test system: adult patients with advanced solid tumors or hematological malignancies; assay: Paired ECGs (QTc, heart rate) before and after plitidepsin infusion; conditions: for QTc Pre-infusion / HR Post-Infusion / QTc Post-infusion / HR Pre-Infusion: mean (SD)
Method: Selected ECG variables (Bazett’s corrected QT interval (QTc) and heart rate (HR)) were analyzed in patients with paired ECG data (i.e., available before and after plitidepsin infusion, n = 136).
(§1) Pharmacokinetic (PK) data available from individual clinical trials (four phase I studies and nine phase II studies; see details in Table 1) and/or simulated data using population PK analyses were correlated with the occurrence of CAEs. In the individual studies, doses ranged from 0.13 to 8.00 mg/m^2, and were administered as 1 h or 24 h infusion weekly, 3 h or 24 h infusion bi-weekly, or 1 h infusion for 5 consecutive days every 3 weeks. To evaluate the potential relationship between blood plitidepsin concentrations and QTc and HR values, a total of 90 patients who had ECGs performed during treatment with plitidepsin and PK data during first infusion were analyzed. The plitidepsin concentration at the time when the ECG had been obtained was calculated using the whole blood plitidepsin concentration at the ECG times in which they were simulated taking the individual Bayesian PK parameters of the final population PK model and considering the real treatment history of each patient. In total, 411 patients and 5585 plitidepsin concentration measurements (including 2900 blood and 2685 plasma concentrations) were pooled in the population PK analysis. An open, 3-compartment disposition model with linear elimination and linear distribution from the central compartment to peripheral compartments was used to describe the PK of plitidepsin in plasma. Between and within subject variabilities were assumed to be log-normally distributed. PK exposure parameters (maximum concentration in plasma (Cmax) and area under the curve (AUC) from day 0 to day 28) and other dose-independent PK parameters (clearance, half-life, etc.) were used to evaluate the relationship between patient PK characteristics and the appearance of CAEs. For the statistical analysis of the relationship between the exposure parameters and the development or not of a CAE, a logistic regression model was used to analyze the incidence of the event.

[2] = Population PK exposure (Cmax, AUC0-28day) by CAE category; conditions: whole blood, mean (SD)
Method: as §1

[3] = as above; conditions: whole blood, simulated, mean (SD)
[4] = All (n = 136 pairs), ECG within 4 h after end of infusion
[5] = Myocardial injury (n = 4 pairs)
[6] = No cardiac event (n = 116 pairs)
[7] = Rhythm abnormalities (n = 18 pairs)
[8] = Other rhythm abnormalities (n = 10)

## plitidepsin
[1]; All (n = 136 pairs), Bazett's corrected
  QTc Pre-infusion: 426.77 (38.78) msec
[1]; [4]
  HR Post-Infusion: 82.46 (13.17) bpm
  QTc Post-infusion: 429.28 (40.25) msec
[1]; All (n = 136 pairs)
  HR Pre-Infusion: 79.07 (15.33) bpm
[1]; Cardiac event (n = 20 pairs)
  HR Post-Infusion: 80.10 (10.87) bpm
  HR Pre-Infusion: 74.05 (13.39) bpm
  QTc Post-infusion: 442.60 (32.09) msec
  QTc Pre-infusion: 437.75 (28.65) msec
[1]; [5]
  HR Post-Infusion: 77.75 (12.55) bpm
  HR Pre-Infusion: 68.75 (10.34) bpm
  QTc Post-infusion: 437.50 (15.20) msec
  QTc Pre-infusion: 429.00 (29.15) msec
[1]; [6]
  HR Post-Infusion: 82.86 (13.53) bpm
  HR Pre-Infusion: 79.92 (15.53) bpm
  QTc Post-infusion: 426.98 (41.18) msec
  QTc Pre-infusion: 424.88 (40.06) msec
[1]; [7]
  HR Post-Infusion: 80.44 (11.30) bpm
  HR Pre-Infusion: 75.44 (13.39) bpm
  QTc Post-infusion: 442.67 (33.79) msec
  QTc Pre-infusion: 439.44 (29.79) msec
[1]; all ECGs during treatment (263 ECGs), simulated concentrations
  Relationship between whole blood plitidepsin concentrations and QTc interval: No apparent relationship
[2]; Irregular supraventricular tachycardia (n = 12), simulated
  AUC0–28day: 3197 (3640) h·ng/mL
[2]; Miscellaneous Cardiac Adverse Event (n = 7), simulated
  AUC0–28day: 2645 (1672) h·ng/mL
[2]; No Cardiac adverse Event (n = 375), simulated from population PK model
  AUC0–28day: 3374 (4336) h·ng/mL
[2]; Other myocardial injury (n = 4), simulated
  AUC0–28day: 4791 (6136) h·ng/mL
[2]; Possible ischemic related (n = 7), simulated
  AUC0–28day: 3668 (1696) h·ng/mL
[2]; Regular supraventricular tachycardia (n = 6), simulated
  AUC0–28day: 5277 (3997) h·ng/mL
[2]; Rhythm Abnormalities (n = 25), simulated
  AUC0–28day: 3435 (3372) h·ng/mL
[3]; Cardiac Adverse Event (n = 36)
  AUC0–28day: 3236 (2955) h·ng/mL
  Cmax: 61.0 (27.9) ng/mL
[3]; Irregular supraventricular tachycardia (n = 12)
  Cmax: 63.7 (34.6) ng/mL
[3]; Myocardial Injury (n = 11)
  AUC0–28day: 4077 (3653) h·ng/mL
  Cmax: 69.5 (28.2) ng/mL
[3]; Other myocardial injury (n = 4)
  Cmax: 64.7 (30.6) ng/mL
[3]; [8]
  AUC0–28day: 2064 (1449) h·ng/mL
  Cmax: 56.8 (26.2) ng/mL
[3]; Possible ischemic related (n = 7)
  Cmax: 72.2 (28.8) ng/mL
[3]; Regular supraventricular tachycardia (n = 6)
  Cmax: 57.2 (23.1) ng/mL
[3]; Rhythm Abnormalities (n = 25)
  Cmax: 61.5 (29.8) ng/mL
